# Test system: socially defeated mice
# Assay: social defeat (SD) model in the mouse, social interaction with a non-aggressive intruder
# Assay type: in vivo
# From the text: N-acetylaspartylglutamate (NAAG) is the most abundant peptide neurotransmitter in the brain. Glu release is increased during stress. Inhibiting glutamatergic tone by inhibiting NAALADase proves an antidepressant in the social defeat (SD) model. The SD model is a form of conditioned contextual fear, in which once-defeated mice retain a long-lasting over-generalized fear and avoidance of all mice (even non-aggressive ones) and lose normal species-appropriate territorial defense.
# The SD model is a form of conditioned contextual fear, in which once-defeated mice retain a long-lasting over-generalized fear and avoidance of all mice (even non-aggressive ones), losing normal species-appropriate territoriality [Lumley et al., 1999] and displaying immobility in a swim test—a behavior associated with models of depression [Hebert et al., 1998].
# Thus, GPI 5232 increased normal territoriality and other species-appropriate social behavior. In sum, this drug diminished behaviors associated with conditioned contextual fear. It is also believed to reduce depression.
smiles,measurement,setting,value
O=C(O)CCC(CP(=O)(O)Cc1c(F)c(F)c(F)c(F)c1F)C(=O)O (stereo not drawn) [GPI 5232],behaviors associated with conditioned contextual fear,SD model,markedly diminished
same,normal territoriality and other species-appropriate social behavior,SD model,increased
same,display of territorial behavior in the form of runback re-approaches,"acute injection, social interaction with a non-aggressive intruder (FIG. 1)",significantly increased

# Reference: patent US20030013635A1, “Method for the treatment of depression by inhibition of NAALADase” (priority 2001, published 2003)
